# Laboratory results reported in patent US20130059929A1, “MICROBIOLOGICALLY STABLE, EASILY APPLICABLE PREPARATIONS” (Beiersdorf AG, priority 2010, published 2013).
# Test system: Staphylococcus epidermidis
# Test: biofilm assay (biofilm inhibition and biofilm dissolution, color reaction on microtiter plate scale, FIG. 1)
# Assay type: cell-based
# Conditions: based on the positive control (PC1); for biofilm-dissolving effect: timepoint 24 h; for biofilm inhibition (biofilm-inhibiting effectiveness): timepoint 0 h
# Experimental: In the course of the biofilm assay, the biofilm inhibition at timepoint 0 h and also the biofilm-dissolving effect at timepoint 24 h is investigated using a color reaction on a microtiter plate scale.
# The test shown in FIG. 1 was carried out with Staphylococcus epidermidis, a germ which causes little harm for people with a normal immunological defense. Staphylococcus epidermidis (syn. Staphylococcus albus, Micrococcus epidermidis, Staphylococcus saprophyticus) is a Gram-positive, plasmacoagulase-negative, saprophagic bacterium which colonizes the human skin and mucosa. Furthermore, it can be found on foods and also colonizes on polymeric surfaces (e.g. packagings). However, in a hospital, in the case of immunocompromised people, it can, in cases of lack of cleanliness, be a cause of serious diseases.
Compound,biofilm-dissolving effect,effectiveness in the biofilm assay (inhibition / dissolution not distinguished),biofilm inhibition (biofilm-inhibiting effectiveness)
"CC(C)(C)CC(C)(C)c1ccc(OCCOCC[N+](C)(C)Cc2ccccc2)cc1 [benzethonium chloride, benzyldimethyl (4-{2-[4-(1,1,3,3-tetramethylbutyl)phenoxy]ethoxy}ethyl)ammonium chloride]",very good biofilm-dissolving effect,–,–
CCOC(=O)c1ccc(O)cc1 [ethylparaben],–,Neither ethylparaben nor methylparaben exhibited effectiveness,–
"CCCCCCCCCCCC(=O)N[C@@H](CCCN=C(N)N)C(=O)OCC.Cl [lauroyl ethyl arginate, ethyl lauroyl arginate HCl]",very good biofilm-dissolving effect,–,very good biofilm-inhibiting effectiveness
"Cn1sccc1=O [methylisothiazolinone, 2-methyl-2H-isothiazol-3-one]",slight biofilm dissolution,–,very good biofilm-inhibiting effectiveness
COC(=O)c1ccc(O)cc1 [methylparaben],–,Neither ethylparaben nor methylparaben exhibited effectiveness,–
"Cc1cc(CC(C)CC(C)(C)C)n(O)c(=O)c1 (stereo not drawn) [piroctone olamine, 1-hydroxy-4-methyl-6-(2,4,4-trimethylpentyl)-2(1H)-pyridone]",slight biofilm dissolution,–,very good biofilm-inhibiting effectiveness
